Earlier results in patent publication US20240382549A1, “USE OF MULBERRY EXTRACT FOR IMPROVING SLEEP QUALITY AND/OR SUBSEQUENT BEHAVIOURAL OUTCOMES” (SOCIETE DES PRODUITS NESTLE S.A., priority 2021, published 2024).

Conditions: earlier study; 12.5 mg DNJ in capsule, co-ingestion with maltodextrin

OC[C@H]1NC[C@H](O)[C@@H](O)[C@@H]1O [DNJ, 1-deoxynojirimycin]
reduction of PPGR: 14%
